Data reported in patent US9636324B2, “Use of 15-benzylidence-14-deoxy-11, 12 -dehyroandrographolide derivative in manufacture of medicaments for protecting liver and anti-hepatitis C virus” (Zhengzhou University, priority 2012, dated 2017).

Assays:
[1] = tested on: mice with ConA induced liver damage; test: ConA induced immunological liver damage model in mice; type: in vivo, Kunming mice; settings: for protective effect against liver damage induced by ConA (summary): mice, intragastric, 3 days
Protocol: Kunming mice of clean grade (male, weight 20±2 g, supplied by the Laboratory Animal Center, Henan Province) are randomly divided into groups with 6 mice in each group. Bifendate (Xinchang Pharmaceutical Factory of Zhejiang Pharmaceutical Co., Ltd, 200 mg/kg) is used as positive control, andrographolide (AD) is provided by Furen Pharmaceutical Group Co., Ltd, and the test compounds are synthesized by the inventors with purities higher than 99.0%. Normal control group and model group are intragastrically given 0.5% sodium carboxymethylcellulose (CMC-Na), and test groups are given 0.5% CMC-Na suspensions with AD (0.88 mmol/kg), and low dosage (0.66 mmol/kg) and high dosage (0.88 mmol/kg) of compound A, B and C, respectively. The drugs are given for 3 days. One hour after the last administration, all mice except those in the normal control group are injected with a single dose of ConA (20 mg/kg) through the caudal vein. After 8 h, the eyeball is enucleated to collect blood, which is centrifuged at 3000 rpm for 15 min to separate serum. ALT and AST are tested according to the kit specification, respectively (Nanjing Jiancheng Bioengineering Institute). The left lobe of liver is taken to prepare 10% homogenate using physiological saline, MDA is determined according to the kit specification (Nanjing Jiancheng Bioengineering Institute). To 50 μL liver homogenate is added 2 mL of 0.5 mol/L KOH-methanol solution and kept at 50° C. water bath to isomerize for 20 minutes, then absorbance (A value) is measured at 278 nm, using the A value per mL of homogenate to represent the PGE2 content. Experimental data are expressed as average±standard deviation (X±s), analyzed with SPSS 11.5 statistic software, with P<0.05 meaning significant difference.
Kunming mice of clean grade (male, weight 20±2 g) are randomly divided into normal group, model group, bifendate (Zhejiang Wanbang Pharmaceutical Co., Ltd) positive control group (200 mg/kg), AD group (0.88 mmol/kg), low dosage group (0.66 mmol/kg) and high dosage (0.88 mmol/kg) group of compound D. ALT, AST, and MDA assay kits are purchased from Nanjing Jiancheng Bioengineering Institute. Other agents, drugs and experimental methods are the same as in EXAMPLE 1.
In experimental investigation of both models, the following grouping method is used: Kunming mice of clean grade (male, weight 20±2 g) are randomly divided into normal group, model group, bifendate group (200 mg/kg), AD group (0.88 mmol/kg), low dosage group (0.66 mmol/kg) and high dosage group (0.88 mmol/kg) of compound E, with 8 mice in each group. Other agents, drugs and experimental methods are the same as in EXAMPLE 1 and in EXAMPLE 4, respectively.

[2] = tested on: bovine viral diarrhea virus (BVDV-AV69); test: CPE observation of effects on cytopathy caused by BVDV in MDBK cells; settings: for antiviral effect compared with AD / pharmaceutical effect against cytopathy caused by virus compared with ribavirin: BVDV in MDBK cells; for TI value (therapy index, TC50/IC50): MDBK cells, BVDV-AV69, TC50 from MTT, IC50 from CPE
Protocol: Pharmaceutical effects of drugs of the invention against cytopathy caused by inoculation of BVDV virus are investigated using MDBK (NBL-1) cells (purchased from Chinese Academy of Science's Shanghai Center for Type Culture Collection) and bovine viral diarrhea virus (BVDV-AV69) (purchased from China Institute of Veterinary Drugs Control). Ribavirin (R; Henan RunHong Pharmaceutical Co., Ltd; batch number: E0909604) is used as positive drug control. MDBK cells are prepared as a suspension (1×10^5/mL) in RPMI1640 culture medium which contains 10% in volume fetal bovine serum (Zhejiang Tianhang Biotechnology Co., Ltd; batch number: 100524), 100 μg/mL streptomycin (Shenzheng Huayao Nanfang Pharmaceutical Co., Ltd; batch number: N09081), 100 U/mL penicillin (North China Pharmaceutical Co., Ltd; batch number: E0909604), and are seeded in 96 well plates (Costar, US) at 200 μL/well, placed in an incubator (Binder, Germany) at 37° C. with 5% CO2 to culture the cell. In 24 h when cells grow into a single layer, virus solution of 100 TCID50 (TCID50=10^−2.5) is added and incubated for 1.5 h. Maintenance medium with the drug is added at 200 μL/well after 3×PBS washes.
After digestion of MDBK cells with trypsin, cells with a concentration of 1×10^5/mL are seeded into 96 well plates at 200 μL/well, placed in an incubator at 37° C. with 5% CO2 for 24 h. After growing into a single layer, cells are attacked using 100 TCID50 (TCID50=10^−2.5) virus and incubated for 1.5 h. The virus-containing maintenance medium is discarded, and cells are washed with PBS, followed by addition of drug-containing maintenance medium with different concentrations, and incubation in 5% CO2 at 37° C. Normal cell control, virus control, drug treatment and ribavirin treatment groups are set. The cytopathy developing status is recorded everyday by observing under an inverted microscope.

MDBK (NBL-1) cells = test: MTT assay for cytotoxicity; type: cell-based, bovine
Protocol: The drug-containing medium is added and further incubated for 48 h. MTT is added (5 mg/mL) at 20 μL/well and cultured for 4 h, the supernatant is discarded and 150 μL DMSO is added, then the plate is shaken for 10 minutes and the absorbance is determined using a microplate reader using the wavelength 570 nm and a reference wavelength 450 nm. The cell survival rate is calculated after treatment of compounds: cell survival rate (%)=drug group A value/cell control group A value×100%, and the results are shown in FIG. 10. Cell proliferation inhibition rate (%)=100%−survival rate (%), half maximal (50%) toxic concentration (TC50) is calculated according to Reed-Muench method.

[3] = tested on: mice with carbon tetrachloride induced liver damage; test: Carbon tetrachloride induced chemical liver damage model in mice; type: in vivo, Kunming mice; settings: for protective effect against liver damage induced by carbon tetrachloride (summary): mice, intragastric, 3 days
Protocol: Kunming mice of clean grade (male, weight 20±2 g), after adaptively fed for 3 days, are randomly divided into normal group, model group, bifendate positive control group (200 mg/kg), AD group (0.88 mmol/kg), low dosage group (0.66 mmol/kg) and high dosage group (0.88 mmol/kg) of compound A, B, C and D, with 8 mice in each group. Positive group and each test group are intragastrically given with respective suspension prepared with 0.5% CMC-Na, and normal group and model group are given with 0.5% CMC-Na. The drugs are given for 3 days, and 1 h after the last administration, all mice except those in the normal group are intraperitoneally injected with a single dose of 0.3% carbon tetrachloride in peanut oil (0.1 mL/10 g). After 16 h, the eyeball of the mice in each group is enucleated to collect blood, which is centrifuged at 3000 rpm for 15 min to separate serum. ALT and AST activities are tested respectively (Nanjing Jiancheng Bioengineering Institute). The left lobe of liver is taken to prepare 10% homogenate using physiological saline, MDA (Nanjing Jiancheng Bioengineering Institute) and PGE2 contents are determined. Experimental data are expressed as average±standard deviation (X±s), analyzed with SPSS 11.5 statistic software, with P<0.05 meaning there is a significant difference. Other agents, drugs and experimental methods are the same as in EXAMPLE 1. In experimental investigation of both models, the following grouping method is used: Kunming mice of clean grade (male, weight 20±2 g) are randomly divided into normal group, model group, bifendate group (200 mg/kg), AD group (0.88 mmol/kg), low dosage group (0.66 mmol/kg) and high dosage group (0.88 mmol/kg) of compound E, with 8 mice in each group. Other agents, drugs and experimental methods are the same as in EXAMPLE 1 and in EXAMPLE 4, respectively.

[4] = high dosage 0.88 mmol/kg vs AD 0.88 mmol/kg, P<0.05
[5] = high dosage 0.88 mmol/kg, P<0.01
[6] = low dosage 0.66 mmol/kg, P<0.05 (D), P<0.01 (E)
[7] = dosage groups not distinguished (0.66 and 0.88 mmol/kg), P<0.01
[8] = dosage groups not distinguished, P<0.01
[9] = high dosage 0.88 mmol/kg, P<0.05
[10] = low dosage 0.66 mmol/kg vs AD 0.88 mmol/kg, P<0.05
[11] = low dosage 0.66 mmol/kg, P<0.01

SMILES: C=C1CCC2C(C)(COC(=O)c3cccnc3)C(OC(=O)c3cccnc3)CCC2(C)C1C=CC1=CC(=Cc2ccc(Cl)cc2)OC1=O (stereo not shown) [Compound D, 15-p-chlorobenzylidene-3,19-nicotinate-14-deoxy-11,12-dehydroandrographolide]
- PGE2 content in liver homogenate relative to normal group ([1]; high dosage 0.88 mmol/kg): close to that of normal group
- enzyme (ALT, AST) lowering effect compared to AD group [1, 4]: obviously increased abilities to lower the enzymes
- ALT activity in serum vs model group [1, 5]: notably decreased
- AST activity in serum vs model group [1, 5]: notably decreased
- MDA content in liver homogenate vs model group [1, 5]: significantly reduce
- PGE2 content in liver homogenate vs model group [1, 5]: significantly reduce
- ability against liver lipid peroxidation compared with AD group ([1]; high dosage 0.88 mmol/kg, P<0.01 (B, C), P<0.05 (D)): obviously increased abilities
- PGE2 content in liver homogenate vs model group ([1]; low dosage 0.66 mmol/kg, P<0.05 (A), P<0.01 (D)): significantly reduce
- ALT activity in serum vs model group [1, 6]: notably decreased
- AST activity in serum vs model group [1, 6]: notably decreased
- MDA content in liver homogenate vs model group ([1]; low dosage (printed 0.66 mol/kg), P<0.01): significantly reduce
- protective effect against liver damage induced by ConA (summary) [1]: significant protective effect
- antiviral effect compared with AD [2]: better antiviral effect than AD
- pharmaceutical effect against cytopathy caused by virus compared with ribavirin [2]: better than ribavirin
- TI value (therapy index, TC50/IC50) [2]: >127.6
- cytotoxicity to MDBK cells (MDBK (NBL-1) cells; 0-7.5 μmol/L, 48 h): do not show obvious cytotoxcity
- ALT activity in serum vs model group [3, 7]: notably suppress the increase
- AST activity in serum vs model group [3, 7]: notably suppress the increase
- MDA level in liver homogenate vs model group [3, 8]: effectively reduce
- PGE2 level in liver homogenate vs model group [3, 8]: effectively reduce
- magnitude of decrease in ALT activity compared to AD group [3, 4]: significantly better
- magnitude of decrease in AST activity compared to AD group [3, 4]: significantly better
- PGE2 content compared to AD group [3, 9]: notably lower
- ability to reduce lipid peroxide level in liver homogenate compared to AD group [3, 9]: stronger ability to reduce the lipid peroxide level
- magnitude of decrease in ALT activity compared to AD group [3, 10]: significantly better
- magnitude of decrease in AST activity compared to AD group [3, 10]: significantly better
- PGE2 content compared to AD group ([3]; low dosage 0.66 mmol/kg, P<0.05): notably lower
- protective effect against liver damage induced by carbon tetrachloride (summary) [3]: protective effect

SMILES: C=C1CCC2C(C)(COC(=O)CCC(=O)O)C(OC(=O)CCC(=O)O)CCC2(C)C1C=CC1=CC(=Cc2ccc(Cl)cc2)OC1=O (stereo not shown) [Compound E]
- ALT activity in serum compared with AD group [1, 4]: notably lower than AD group
- AST activity in serum compared with AD group [1, 4]: notably lower than AD group
- ALT activity in serum vs model group [1, 5]: notably decrease
- AST activity in serum vs model group [1, 5]: notably decrease
- ALT activity in serum compared with AD group [1, 10]: notably lower than AD group
- AST activity in serum compared with AD group [1, 10]: notably lower than AD group
- ALT activity in serum vs model group [1, 6]: notably decrease
- AST activity in serum vs model group [1, 6]: notably decrease
- protective effect against liver damage induced by ConA (summary) [1]: significant protective effect
- antiviral effect compared with AD [2]: better antiviral effect than AD
- pharmaceutical effect against cytopathy caused by virus compared with ribavirin [2]: better than ribavirin
- TI value (therapy index, TC50/IC50) [2]: >250
- cytotoxicity to MDBK cells (MDBK (NBL-1) cells; 0-7.5 μmol/L, 48 h): do not show obvious cytotoxcity
- cytotoxicity to MDBK cells (MDBK (NBL-1) cells; 30 μmol/L): shows no cytotoxcity
- magnitude of decrease in ALT activity compared to AD group [3, 4]: notably lower
- magnitude of decrease in AST activity compared to AD group [3, 4]: notably lower
- ALT activity in serum vs model group [3, 5]: notably decrease
- AST activity in serum vs model group [3, 5]: notably decrease
- ALT activity in serum vs model group [3, 11]: notably decrease
- AST activity in serum vs model group [3, 11]: notably decrease
- protective effect against liver damage induced by carbon tetrachloride (summary) [3]: significant protective effect
